Values quoted from earlier work as cited in patent US20180243418A1, “SYSTEMS AND METHODS FOR TARGETED CANCER THERAPIES” (American University of Sharjah, priority 2017, published 2018).

Tests used:
VX2 carcinoma cells = conditions: rabbits implanted with VX2 carcinoma cells, intravenous
[1] = tested on: human and mice melanoma cells; conditions: melanoma cells treated for about 8 hours

COc1cccc2c1C(=O)c1c(O)c3c(c(O)c1C2=O)C[C@@](O)(C(=O)CO)C[C@@H]3O[C@H]1C[C@H](N)[C@H](O)[C@H](C)O1 [free Dox, doxorubicin]
concentration of Dox in tumors (VX2 carcinoma cells): about 4.0±1.0 μg Dox/g tissues | accumulation in the nucleus, of the initial amount [1]: about 26% | initial concentration detected in the cell cytoplasm [1]: about 0.5%
